Reference: PMC11858653, “Design, Synthesis and Bioactive Evaluation of Topo I/c-MYC Dual Inhibitors to Inhibit Oral Cancer via Regulating the PI3K/AKT/NF-κB Signaling Pathway” (Molecules, 2025)

Assays:
[1] = tested on: ACHN; assay: MTT antiproliferative assay, ACHN; format: cell-based, human; details: Homo sapiens, ACHN, 48 h, mean ± SD
[2] = target: T1, Topo I (Homo sapiens, UniProt P11387); assay: Topo I inhibitory activity, agarose gel electrophoresis (pBR322); format: biochemical
T1 sequence (P11387 1-765): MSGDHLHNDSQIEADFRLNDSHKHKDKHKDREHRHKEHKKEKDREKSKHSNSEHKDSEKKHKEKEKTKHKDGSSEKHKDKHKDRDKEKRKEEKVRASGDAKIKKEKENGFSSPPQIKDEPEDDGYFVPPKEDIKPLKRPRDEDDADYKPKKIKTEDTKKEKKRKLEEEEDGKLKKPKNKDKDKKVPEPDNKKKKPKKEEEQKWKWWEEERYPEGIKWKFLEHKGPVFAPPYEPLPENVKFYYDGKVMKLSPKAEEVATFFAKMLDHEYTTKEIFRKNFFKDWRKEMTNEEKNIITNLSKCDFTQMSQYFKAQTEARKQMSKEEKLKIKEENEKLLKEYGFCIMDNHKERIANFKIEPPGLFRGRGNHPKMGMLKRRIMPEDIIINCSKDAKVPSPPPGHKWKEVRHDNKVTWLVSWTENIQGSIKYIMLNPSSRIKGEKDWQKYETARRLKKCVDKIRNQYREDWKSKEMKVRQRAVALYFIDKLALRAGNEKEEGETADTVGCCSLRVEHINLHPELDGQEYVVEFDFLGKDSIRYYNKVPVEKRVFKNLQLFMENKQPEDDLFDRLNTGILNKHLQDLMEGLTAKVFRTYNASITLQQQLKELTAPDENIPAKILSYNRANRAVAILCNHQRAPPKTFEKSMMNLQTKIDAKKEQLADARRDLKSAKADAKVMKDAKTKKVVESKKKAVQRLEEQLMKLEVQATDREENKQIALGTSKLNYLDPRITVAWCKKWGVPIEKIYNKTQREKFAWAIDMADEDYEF
Experimental: In this assay, 250 ng of pBR322 plasmid DNA, different concentrations of the compounds to be tested, 0.1% BSA 1 μL, 10× Topo I buffer, Topo I and add 1× TAE buffer were mixed to a final volume of 20 μL. The reaction was carried out for 30 min at 37 °C in a water bath. After the reaction was terminated, 4 μL of each of the 6× DNA Sampling Buffers were added to the gel. The pBR322 plasmid DNA alone was used as a negative control, and camptothecin was used as a positive control. Finally, the samples were loaded onto the gels and electrophoresed for about 1.5 h. After electrophoresis, the gel blocks were incubated in 1 mg/L ethidium bromide (EB) for 30 min and then visualized on the gel system.

[3] = tested on: c-MYC; assay: RT-qPCR of c-MYC transcription in Cal27 cells; format: cell-based, human; details: Cal27, 24 h
Experimental: Cal27 cells were plated in a 6-well plate and incubated for 12 h at 37 °C in a humidified atmosphere with 5% CO2, then compound 7be was added at final concentrations of 1 μM, 2 μM, 3 μM and 4 μM. After incubation for 24 h, cells were harvested, and the RNA was extracted according to the manufacturer’s instructions. Total RNA was used as a template for reverse transcription. The cDNA was obtained and applied directly for further qPCR. According to the manufacturer’s protocol, the real-time PCR was performed on a real-time PCR apparatus. The total volume of 20 μL of quantitative reaction mixtures contained 10 μL of SYBR Green qPCR Mix, 0.4 μL PCR Forward Primer (10 μM), 0.4 μL PCR Reverse Primer (10 μM) and 2 μL of cDNA (Table S4). The c-MYC mRNA levels were normalized to the GAPDH mRNA level of each sample. Results of real-time PCR were analyzed using the 2^−ΔCt method.

[4] = tested on: Cal27 cells; assay: MTT cell survival with autophagy inhibitor CQ; format: cell-based, human; details: Cal27, 20 μM CQ and different concentrations of 7be
Experimental: Meanwhile, to further confirm that compound 7be could induce autophagic death in Cal27 cells, we used a classical autophagy inhibitor, chloroquine (CQ), to evaluate the role of autophagy in compound 7be-mix-induced cell death.
Human oral cancer Cal27 cells were seeded in 96-well plates and incubated overnight in 180 μL of medium containing 10% Fetal Bovine Serum (Gibco, San Francisco, CA, USA). On the following day, compounds at final concentrations of 2.5, 5, 10 and 20 μM were added to each well and incubated for 48 h. Then, 10 μL of 5 mg/mL MTT solution was added to each well and incubated at 37 °C for 4 h. After 4 h of incubation at 37 °C, the MTT-containing medium was removed and DMSO was added to each well and the absorbance at 570 nm and 630 nm was measured using a microplate reader (CYTATION 3, Burton, Westwood, NJ, USA). Survival/% = (mean OD of experimental group/mean OD of control group) × 100%. Each test was repeated at least three times.

Compound: Cc1cc(C)c2c(n1)S(=O)(=O)c1c-2nc(NCCN2CCCCC2)c2ccccc12 [7be, 7,9-Dimethyl-5-((2-(piperidin-1-yl)ethyl)amino) pyrido[3′,2′:4,5]thieno[3,2-c]isoquinoline 11,11-dioxide]
- IC50 [1]: 3.25 ± 1.59 µM
- Topo I inhibitory activity (in words) ([2]; 20 μM): potent Topo I activity
- concentration at which the activity of Topo I was fully inhibited ([2]; different concentrations): 20 µM
- concentration needed to significantly inhibit the transcription of c-MYC [3]: 8 µM
- cell survival rate of combined treatment with 20 μM CQ [4]: higher than that of the group treated with compound 7be alone
